Results from patent publication US11319307B2, “2,3-dihydrobenzohurans as bromodomain inhibitors” (GLAXOSMITHKLINE INTELLECTUAL PROPERTY (NO.2) LIMITED, priority 2017, dated 2022).

System: BET family (BRD2, BRD3, BRD4 and BRDT) single and double mutant tandem domain proteins
Assay: Fluorescence Polarisation binding of Reference Compound X to mutant tandem BET proteins
Set-up: species or system Human
Protocol: The competition of the compounds of formula (I) with Reference Compound X for binding to the BET family (BRD2, BRD3, BRD4 and BRDT) was assessed using protein truncates spanning both bromodomain 1 (BD1) and bromodomain 2 (BD2). In order to monitor differential binding to either BD1 or BD2, single residue mutations of key tyrosines to alanine were made in the acetyl lysine binding pockets. To validate this approach, a double residue mutant tandem domain protein was produced for each of the BET family members. Utilising a Fluorescence Polarisation approach, binding affinities for each of the single and double mutants for Reference Compound X were determined. […] The affinities of the single mutated bromdomain tandem proteins for Reference Compound X were equi-potent with the corresponding non-mutated BET protein. […] In the TR-FRET competition assay, Reference Compound X is used at a concentration that is equivalent to the Kd for the non-mutated bromodomain, which ensures that no binding at the mutated bromodomain is detected. […]

Compound: COc1ccc2c(c1)C(c1ccc(Cl)cc1)=N[C@@H](CC(=O)NCCCCCNC(=O)CCCCCC1(C)/C(=C/C=C/C=C/C3=[N+](CCCCS(=O)(=O)O)c4ccc(S(=O)(=O)O)cc4C3(C)C)N(CCCCS(=O)(=O)[O-])c3ccc(S(=O)(=O)O)cc31)c1nnc(C)n1-2 (some centres unmarked) [Reference Compound X]
- reduction in Kd (affinity for Reference Compound X) (double mutant tandem proteins versus non mutated, wild type tandem BET proteins): > 1000 fold
- reduction of the Kd of the interaction between the mutated bromodomain and Reference Compound X (single mutations of Tyrosine to Alanine): > 1000 fold
